Patent publication US20170354148A1, “SAFENED HERBICIDAL COMPOSITIONS CONTAINING HALAUXIFEN AND METHODS OF USE THEREOF IN BRASSICA SPECIES” (Dow AgroSciences LLC, priority 2016, published 2017)

Tested on: Spring Argentine canola (Brassica napus, BRSNS)
Assay: Example 3 field trials (Canada), postemergence crop safety, visual phytotoxicity

COC(=O)c1nc(-c2ccc(Cl)c(OC)c2F)cc(N)c1Cl [Halauxifen-methyl, methyl 4-amino-3-chloro-6-(4-chloro-2-fluoro-3-methoxyphenyl)-2-pyridineccarboxylate]
Mean % Visual Injury (Table 14, 7DAAA, halauxifen-methyl 5, quinclorac 101 g ae/ha, alone or mixed): 0.8% | Mean % Visual Injury (Table 14, 15DAAA, halauxifen-methyl 5, quinclorac 101 g ae/ha, alone or mixed): 50.5% | Mean % Visual Injury (Table 14, 27DAAA, halauxifen-methyl 5, quinclorac 101 g ae/ha, alone or mixed): 48.5% | Mean % Visual Injury (Table 14, 57DAAA, halauxifen-methyl 5, quinclorac 101 g ae/ha, alone or mixed): 30.3% | Mean % Visual Injury (Table 15, 7DAAA, halauxifen-methyl 5, clopyralid-olamine 150, quinclorac 101 g ae/ha, alone or mixed): 0.8% | Mean % Visual Injury (Table 15, 15DAAA, halauxifen-methyl 5, clopyralid-olamine 150, quinclorac 101 g ae/ha, alone or mixed): 50.5% | Mean % Visual Injury (Table 15, 27DAAA, halauxifen-methyl 5, clopyralid-olamine 150, quinclorac 101 g ae/ha, alone or mixed): 48.5% | Mean % Visual Injury (Table 15, 57DAAA, halauxifen-methyl 5, clopyralid-olamine 150, quinclorac 101 g ae/ha, alone or mixed): 30.3% | Mean % Visual Injury (Table 16, 7DAAA, halauxifen-methyl 5 g ae/ha, alone or plus isoxadifen-ethyl 5 g ae/ha): 0.8% | Mean % Visual Injury (Table 16, 15DAAA, halauxifen-methyl 5 g ae/ha, alone or plus isoxadifen-ethyl 5 g ae/ha): 50.5% | Mean % Visual Injury (Table 16, 27DAAA, halauxifen-methyl 5 g ae/ha, alone or plus isoxadifen-ethyl 5 g ae/ha): 48.5% | Mean % Visual Injury (Table 16, 57DAAA, halauxifen-methyl 5 g ae/ha, alone or plus isoxadifen-ethyl 5 g ae/ha): 30.3% | Mean % Visual Injury (Table 17, 7DAAA, halauxifen-methyl 5, clopyralid-olamine 150 g ae/ha alone, or both mixed with isoxadifen-ethyl 5 g ae/ha): 0.8% | Mean % Visual Injury (Table 17, 15DAAA, halauxifen-methyl 5, clopyralid-olamine 150 g ae/ha alone, or both mixed with isoxadifen-ethyl 5 g ae/ha): 50.5% | Mean % Visual Injury (Table 17, 27DAAA, halauxifen-methyl 5, clopyralid-olamine 150 g ae/ha alone, or both mixed with isoxadifen-ethyl 5 g ae/ha): 48.5% | Mean % Visual Injury (Table 17, 57DAAA, halauxifen-methyl 5, clopyralid-olamine 150 g ae/ha alone, or both mixed with isoxadifen-ethyl 5 g ae/ha): 30.3% | Mean % Visual Injury (Table 18, 8DAAA, halauxifen-methyl 5, clopyralid-olamine 150 g ae/ha, alone or mixed): 10% | Mean % Visual Injury (Table 18, 14DAAA, halauxifen-methyl 5, clopyralid-olamine 150 g ae/ha, alone or mixed): 24% | Mean % Visual Injury (Table 18, 40DAAA, halauxifen-methyl 5, clopyralid-olamine 150 g ae/ha, alone or mixed): 7% | Mean % Visual Injury (Table 18, 81DAAA, halauxifen-methyl 5, clopyralid-olamine 150 g ae/ha, alone or mixed): 6% | Mean % Visual Injury (Table 19, 8DAAA, halauxifen-methyl 5, clopyralid-olamine 150 g ae/ha alone, or both mixed with isoxadifen-ethyl 20 g ae/ha): 10% | Mean % Visual Injury (Table 19, 14DAAA, halauxifen-methyl 5, clopyralid-olamine 150 g ae/ha alone, or both mixed with isoxadifen-ethyl 20 g ae/ha): 24% | Mean % Visual Injury (Table 19, 40DAAA, halauxifen-methyl 5, clopyralid-olamine 150 g ae/ha alone, or both mixed with isoxadifen-ethyl 20 g ae/ha): 7% | Mean % Visual Injury (Table 19, 81DAAA, halauxifen-methyl 5, clopyralid-olamine 150 g ae/ha alone, or both mixed with isoxadifen-ethyl 20 g ae/ha): 6% | Mean % Visual Injury (Table 21, 8DAAA, halauxifen-methyl 5, quinclorac 101 g ae/ha, alone or mixed): 10% | Mean % Visual Injury (Table 21, 14DAAA, halauxifen-methyl 5, quinclorac 101 g ae/ha, alone or mixed): 24% | Mean % Visual Injury (Table 21, 40DAAA, halauxifen-methyl 5, quinclorac 101 g ae/ha, alone or mixed): 7% | Mean % Visual Injury (Table 21, 81DAAA, halauxifen-methyl 5, quinclorac 101 g ae/ha, alone or mixed): 6% | Mean % Visual Injury (Table 22, 8DAAA, halauxifen-methyl 5, clopyralid-olamine 150, quinclorac 101 g ae/ha, alone or mixed): 10% | Mean % Visual Injury (Table 22, 14DAAA, halauxifen-methyl 5, clopyralid-olamine 150, quinclorac 101 g ae/ha, alone or mixed): 24% | Mean % Visual Injury (Table 22, 40DAAA, halauxifen-methyl 5, clopyralid-olamine 150, quinclorac 101 g ae/ha, alone or mixed): 7% | Mean % Visual Injury (Table 22, 81DAAA, halauxifen-methyl 5, clopyralid-olamine 150, quinclorac 101 g ae/ha, alone or mixed): 6% | Mean % Visual Injury (Table 23, 7DAAA, halauxifen-methyl 5, clopyralid-olamine 150 g ae/ha, alone or mixed): 2.5% | Mean % Visual Injury (Table 23, 17DAAA, halauxifen-methyl 5, clopyralid-olamine 150 g ae/ha, alone or mixed): 3.0% | Mean % Visual Injury (Table 23, 49DAAA, halauxifen-methyl 5, clopyralid-olamine 150 g ae/ha, alone or mixed): 2.5% | Mean % Visual Injury (Table 24, 7DAAA, halauxifen-methyl 5, clopyralid-olamine 150 g ae/ha alone, or both mixed with isoxadifen-ethyl 20 g ae/ha): 2.5% | Mean % Visual Injury (Table 24, 17DAAA, halauxifen-methyl 5, clopyralid-olamine 150 g ae/ha alone, or both mixed with isoxadifen-ethyl 20 g ae/ha): 3.0% | Mean % Visual Growth Inhibition (Trial 1, 16DAA1, halauxifen-methyl 2.5, clopyralid-olamine 150 g ae/ha, alone or mixed): 1.5% | Mean % Visual Growth Inhibition (Trial 1, 30DAA1, halauxifen-methyl 2.5, clopyralid-olamine 150 g ae/ha, alone or mixed): 3.3% | Mean % Visual Growth Inhibition (Trial 1, 58DAA1, halauxifen-methyl 2.5, clopyralid-olamine 150 g ae/ha, alone or mixed): 1.0% | Mean % Visual Growth Inhibition (Trial 2, 32DAA1, halauxifen-methyl 0.62, clopyralid-olamine 150 g ae/ha, alone or mixed): 1.0% | Mean % Visual Growth Inhibition (Trial 2, 32DAA1, halauxifen-methyl 1.25, clopyralid-olamine 150 g ae/ha, alone or mixed): 3.8% | Mean % Visual Growth Inhibition (Trial 2, 32DAA1, halauxifen-methyl 2.5, clopyralid-olamine 150 g ae/ha, alone or mixed): 8.0% | Mean % Visual Growth Inhibition (Trial 2, 49DAA1, halauxifen-methyl 0.62, clopyralid-olamine 150 g ae/ha, alone or mixed): 0.3% | Mean % Visual Growth Inhibition (Trial 2, 49DAA1, halauxifen-methyl 1.25, clopyralid-olamine 150 g ae/ha, alone or mixed): 2.3% | Mean % Visual Growth Inhibition (Trial 2, 49DAA1, halauxifen-methyl 2.5, clopyralid-olamine 150 g ae/ha, alone or mixed): 2.5% | Mean % Visual Growth Inhibition (Trial 3, 8DAA1, halauxifen-methyl 5, clopyralid-olamine 150 g ae/ha, alone or mixed, line r23): 2.5% | Mean % Visual Growth Inhibition (Trial 3, 8DAA1, halauxifen-methyl 5, clopyralid-olamine 150 g ae/ha, alone or mixed, line r25): 1.5% | Mean % Visual Growth Inhibition (Trial 3, 8DAA1, halauxifen-methyl 10, clopyralid-olamine 150 g ae/ha, alone or mixed, line r22): 3.3% | Mean % Visual Growth Inhibition (Trial 3, 8DAA1, halauxifen-methyl 10, clopyralid-olamine 150 g ae/ha, alone or mixed, line r24): 2.3% | Mean % Visual Growth Inhibition (Trial 3, 17DAA1, halauxifen-methyl 5, clopyralid-olamine 150 g ae/ha, alone or mixed, line r27): 1.3% | Mean % Visual Growth Inhibition (Trial 3, 17DAA1, halauxifen-methyl 5, clopyralid-olamine 150 g ae/ha, alone or mixed, line r29): 1.5% | Mean % Visual Growth Inhibition (Trial 3, 17DAA1, halauxifen-methyl 10, clopyralid-olamine 150 g ae/ha, alone or mixed, line r26): 29.5% | Mean % Visual Growth Inhibition (Trial 3, 17DAA1, halauxifen-methyl 10, clopyralid-olamine 150 g ae/ha, alone or mixed, line r28): 2.8% | Mean % Visual Growth Inhibition (Trial 3, 35DAA1, halauxifen-methyl 10, clopyralid-olamine 150 g ae/ha, alone or mixed): 0.8% | Mean % Visual Growth Inhibition (Trial 3, 48DAA1, halauxifen-methyl 5, clopyralid-olamine 150 g ae/ha, alone or mixed, line r31): 1.8% | Mean % Visual Growth Inhibition (Trial 3, 48DAA1, halauxifen-methyl 5, clopyralid-olamine 150 g ae/ha, alone or mixed, line r32): 1.5% | Mean % Visual Growth Inhibition (Trial 4, 13DAA1, halauxifen-methyl 10, clopyralid-olamine 150 g ae/ha, alone or mixed, line r33): 57.5% | Mean % Visual Growth Inhibition (Trial 4, 13DAA1, halauxifen-methyl 10, clopyralid-olamine 150 g ae/ha, alone or mixed, line r34): 31.3% | Mean % Visual Growth Inhibition (Trial 5, 7DAA1, halauxifen-methyl 0.62, clopyralid-olamine 150 g ae/ha, alone or mixed): 1.0% | Mean % Visual Growth Inhibition (Trial 5, 7DAA1, halauxifen-methyl 1.25, clopyralid-olamine 150 g ae/ha, alone or mixed): 1.5% | Mean % Visual Growth Inhibition (Trial 5, 7DAA1, halauxifen-methyl 2.5, clopyralid-olamine 150 g ae/ha, alone or mixed): 1.5% | Mean % Visual Growth Inhibition (Trial 5, 7DAA1, halauxifen-methyl 5, clopyralid-olamine 150 g ae/ha, alone or mixed): 2.0% | Mean % Visual Growth Inhibition (Trial 6, 33DAA1, halauxifen-methyl 5, clopyralid-olamine 150 g ae/ha, alone or mixed): 4.5% | Mean % Visual Growth Inhibition (Trial 7, 8DAA1, halauxifen-methyl 5, clopyralid-olamine 150 g ae/ha, alone or mixed): 8.0% | Mean % Visual Growth Inhibition (Trial 7, 15DAA1, halauxifen-methyl 0.62, clopyralid-olamine 150 g ae/ha, alone or mixed): 2.5% | Mean % Visual Growth Inhibition (Trial 7, 15DAA1, halauxifen-methyl 5, clopyralid-olamine 150 g ae/ha, alone or mixed): 15.5% | Mean % Visual Growth Inhibition (Trial 8, 7DAA1, halauxifen-methyl 5, clopyralid-olamine 150 g ae/ha, alone or mixed): 7.5% | Mean % Visual Growth Inhibition (Trial 8, 7DAA1, halauxifen-methyl 10, clopyralid-olamine 150 g ae/ha, alone or mixed, line r44): 9.0% | Mean % Visual Growth Inhibition (Trial 8, 7DAA1, halauxifen-methyl 10, clopyralid-olamine 150 g ae/ha, alone or mixed, line r45): 3.5% | Mean % Visual Growth Inhibition (Trial 8, 7DAA1, halauxifen-methyl 10, clopyralid-olamine 150 g ae/ha, alone or mixed, line r46): 2.0% | Mean % Visual Growth Inhibition (Trial 8, 7DAA1, halauxifen-methyl 10, clopyralid-olamine 150 g ae/ha, alone or mixed, line r47): 1.5% | Mean % Visual Growth Inhibition (Trial 8, 15DAA1, halauxifen-methyl 5, clopyralid-olamine 150 g ae/ha, alone or mixed): 20.0% | Mean % Visual Growth Inhibition (Trial 8, 15DAA1, halauxifen-methyl 10, clopyralid-olamine 150 g ae/ha, alone or mixed, line r49): 6.0% | Mean % Visual Growth Inhibition (Trial 8, 15DAA1, halauxifen-methyl 10, clopyralid-olamine 150 g ae/ha, alone or mixed, line r50): 2.0% | Mean % Visual Growth Inhibition (Trial 9, 23DAA1, halauxifen-methyl 2.5, clopyralid-olamine 150 g ae/ha, alone or mixed): 35.0% | Mean % Visual Growth Inhibition (Trial 9, 23DAA1, halauxifen-methyl 5, clopyralid-olamine 150 g ae/ha, alone or mixed): 50.0% | Mean % Visual Growth Inhibition (Trial 9, 33DAA1, halauxifen-methyl 5, clopyralid-olamine 150 g ae/ha, alone or mixed): 25.0% | Mean % Visual Growth Inhibition (Trial 9, 59DAA1, halauxifen-methyl 5, clopyralid-olamine 150 g ae/ha, alone or mixed): 6.3% | Mean % Visual Growth Inhibition (Trial 10, 17DAA1, halauxifen-methyl 5, clopyralid-olamine 100 g ae/ha, alone or mixed): 46.7% | Mean % Visual Growth Inhibition (Trial 10, 17DAA1, halauxifen-methyl 5, clopyralid-olamine 150 g ae/ha, alone or mixed): 46.7% | Mean % Visual Growth Inhibition (Trial 10, 17DAA1, halauxifen-methyl 5, clopyralid-olamine 200 g ae/ha, alone or mixed): 46.7% | Mean % Visual Growth Inhibition (Trial 10, 27DAA1, halauxifen-methyl 5, clopyralid-olamine 150 g ae/ha, alone or mixed): 16.7% | Mean % Visual Growth Inhibition (Trial 10, 27DAA1, halauxifen-methyl 5, clopyralid-olamine 200 g ae/ha, alone or mixed): 16.7% | Mean % Visual Growth Inhibition (Trial 11, 7DAA1, halauxifen-methyl 5, clopyralid-olamine 150 g ae/ha, alone or mixed): 1.3% | Mean % Visual Growth Inhibition (Trial 11, 15DAA1, halauxifen-methyl 0.62, clopyralid-olamine 150 g ae/ha, alone or mixed): 2.0% | Mean % Visual Growth Inhibition (Trial 11, 15DAA1, halauxifen-methyl 1.25, clopyralid-olamine 150 g ae/ha, alone or mixed): 6.5% | Mean % Visual Growth Inhibition (Trial 12, 15DAA1, halauxifen-methyl 10, clopyralid-olamine 150 g ae/ha, alone or mixed): 25.0% | Mean % Visual Growth Inhibition (Trial 12, 27DAA1, halauxifen-methyl 5, clopyralid-olamine 150 g ae/ha, alone or mixed): 5.8%
